Melting point and inhibition data for 32 molecules are collected here from patent US7906522B2, “2-aminoquinazoline derivatives” (Kyowa Hakko Kirin Co., Ltd, priority 2005, dated 2011).

Usually melting point stands for the temperature of the solid-liquid transition.

In data set [1] the target is T1, Activated human p38α (Homo sapiens, UniProt Q16539).
T1 construct: purchased Upstate Biotechnology Inc. 14-251
In words: p38MAP kinase inhibition test. The class given is biochemical. The following applies: at a concentration of 1 μmol/L; substrate myelin basic protein, ATP 20 μmol/L, [γ-32P]ATP; read-out: enzyme inhibitory activity. A digest of the protocol: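 Phosphorylation of myelin basic protein (20 μg/assay) by the kinase measured via [γ-32P]ATP incorporation at 20 μmol/L ATP, pH 7.2 MOPS buffer, 30° C. for 15 min. Labelled substrate bound to P81 paper, washed, and quantified by scintillation counting; compounds added in DMSO.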

T1 sequence (Q16539 whole entry): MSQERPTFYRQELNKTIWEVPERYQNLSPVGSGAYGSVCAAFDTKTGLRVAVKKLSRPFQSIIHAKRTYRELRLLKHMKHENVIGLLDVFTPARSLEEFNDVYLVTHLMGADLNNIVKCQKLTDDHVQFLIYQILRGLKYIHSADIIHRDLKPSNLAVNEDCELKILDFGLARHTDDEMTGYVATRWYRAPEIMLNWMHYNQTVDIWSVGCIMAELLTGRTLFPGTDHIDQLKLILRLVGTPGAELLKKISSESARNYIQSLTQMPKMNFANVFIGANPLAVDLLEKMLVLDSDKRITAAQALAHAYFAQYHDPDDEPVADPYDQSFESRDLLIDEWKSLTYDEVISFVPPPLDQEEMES

The molecule `Cc1ccc(NC(=O)c2ccnc(N3CCOCC3)c2)cc1-c1cc2cnc(NC(C)C)nc2cc1O` [Compound 346, 7-Hydroxy-2-isopropylamino-6-{2-methyl-5-[(2-morpholinopyridin-4-yl)carbonylamino]phenyl}quinazoline] came in with a melting point of 169 to 172 °C. Moreover, the inhibition at 1 µM in data set [1] was at least 50%.

`Cc1c(F)cc(C(=O)NC2CC2)cc1-c1cc2cnc(NC(C)C)nc2cc1O` [Compound 344, 6-(5-Cyclopropylcarbamoyl-3-fluoro-2-methylphenyl)-7-hydroxy-2-(isopropylamino)quinazoline] gave a melting point of 175 to 177 °C. In addition, the inhibition at 1 µM in data set [1] is at least 50%.

In turn, `CC(C)Nc1ncc2cc(-c3cccc(NC(=O)c4cc(F)cc(N5CCOCC5)c4)c3)c(O)cc2n1` [Compound 332, 6-[3-(3-Fluoro-5-morpholinobenzoylamino)phenyl]-7-hydroxy-2-(isopropylamino)quinazoline] yielded a melting point of 217 to 219 °C. For the same molecule, the inhibition at 1 µM in data set [1] was at least 50%.

Consider `CC(C)Nc1ncc2cc(-c3cccc(NC(=O)c4cc(F)cc(N5CCCCC5)c4)c3)c(O)cc2n1` [Compound 370, 6-{3-[3-Fluoro-5-(piperidino)benzoylamino]phenyl}-7-hydroxy-2-(isopropylamino)quinazoline], for which the melting point was 215 to 217 °C.

For `CCC(CC)Nc1ncc2cc(-c3cccc(NC(=O)c4cccc(N(C)C)c4)c3)c(O)cc2n1` [Compound 366, 6-{3-[(3-Dimethylaminophenyl)carbonylamino]phenyl}-2-(3-pentylamino)-7-hydroxyquinazoline], the melting point was 152 °C. In addition, the inhibition at 1 µM in data set [1] was at least 50%.

With `CONC(=O)c1ccc(C)c(-c2cc3cnc(NC(C)C)nc3cc2O)c1` [Compound 353, 7-Hydroxy-2-isopropylamino-6-(5-methoxycarbamoyl-2-methylphenyl)quinazoline], the melting point is 158 to 161 °C. Besides, in data set [1], the inhibition at 1 µM was at least 50%.

On to `Cc1ccc(C(=O)NC2CC2)cc1-c1cc2cnc(Nc3c(C)cccc3C)nc2cc1O` [Compound 317, 6-(5-Cyclopropylcarbamoyl-2-methylphenyl)-2-(2,6-dimethylanilino)-7-hydroxyquinazoline], for which the melting point lay in the range of 210 to 213 °C. In addition, in data set [1], the inhibition at 1 µM was at least 50%.

In turn, `CC[C@H](C)Nc1ncc2cc(-c3cccc(NC(=O)c4ccnc(N5CCCC5)c4)c3)c(O)cc2n1` [Compound 384, (S)-2-(sec-Butylamino)-7-hydroxy-6-{3-[2-(pyrrolidin-1-yl)pyridin-4-ylcarbonylamino]phenyl}quinazoline] came in with a melting point of 165 to 168 °C.

As to `COc1ccc(C(F)(F)F)cc1NC(=O)c1ccc(C)c(-c2cc3cnc(NC(C)C)nc3cc2O)c1` [Compound 338, 7-Hydroxy-2-isopropylamino-6-{5-[(2-methoxy-5-trifluoromethylphenyl)carbamoyl]-2-methylphenyl}quinazoline], the melting point was 280 to 281 °C. Also, the inhibition at 1 µM in data set [1] was at least 50%.

For the molecule `CS(=O)(=O)N1CCC(Nc2ncc3cc(-c4ccccc4Cl)c(O)cc3n2)CC1` [Compound 156, 6-(2-Chlorophenyl)-7-hydroxy-2-[1-(methylsulfonyl)piperidin-4-ylamino]quinazoline], the melting point lay within 268 to 271 °C. Moreover, the inhibition at 1 µM in data set [1] was at least 50%.

In turn, `Cc1ccccc1-c1cc2cnc(Nc3c(Cl)cccc3Cl)nc2cc1O` [Compound 176, 2-(2,6-Dichloroanilino)-7-hydroxy-6-(2-methylphenyl)quinazoline] returned a melting point of 226 to 227 °C. Further, the inhibition at 1 µM in data set [1] was at least 50%.

As for `CC(C)Nc1ncc2cc(-c3cccc(NC(=O)c4ccnc(N5CCOCC5)c4)c3)c(O)cc2n1` [Compound 290, 7-Hydroxy-2-isopropylamino-6-{3-[(2-morpholinopyridin-4-yl)carbonylamino]phenyl}quinazoline], the melting point turned out to be 258 °C. Also, the inhibition at 1 µM in data set [1] is at least 50%.

For the molecule `Cc1ccccc1-c1cc2cnc(Nc3c(C)cccc3C)nc2cc1O` [Compound 175, 2-(2,6-Dimethylanilino)-7-hydroxy-6-(2-methylphenyl)quinazoline], the melting point is 220 to 222 °C. Moreover, the inhibition at 1 µM in data set [1] is at least 50%.

With `CCONC(=O)c1ccc(C)c(-c2cc3cnc(NC(C)C)nc3cc2O)c1` [Compound 380, 6-(5-Ethoxycarbamoyl-2-methylphenyl)-7-hydroxy-2-(isopropylamino)quinazoline], the melting point turned out to be 157 °C.

The molecule `CS(=O)(=O)N1CCC(Nc2ncc3cc(-c4cccc(O)c4)c(O)cc3n2)CC1` [Compound 247, 7-Hydroxy-6-(3-hydroxyphenyl)-2-[1-(methylsulfonyl)piperidin-4-ylamino]quinazoline] yielded a melting point of 285 to 290 °C. The inhibition at 1 µM in data set [1] is at least 50%.

For `CCS(=O)(=O)N1CCC(Nc2ncc3cc(-c4ccccc4Cl)c(O)cc3n2)CC1` [Compound 161, 6-(2-Chlorophenyl)-2-[1-(ethylsulfonyl)piperidin-4-ylamino]-7-hydroxyquinazoline], the melting point lay within 251 to 253 °C. For the same molecule, in data set [1], the inhibition at 1 µM was at least 50%.

Molecule `Cc1ccc(C(=O)Nc2cccc(N(C)C)c2)cc1-c1cc2cnc(NC(C)C)nc2cc1O` [Compound 324, 6-{5-[(3-Dimethylaminophenyl)carbamoyl]-2-methylphenyl}-7-hydroxy-2-(isopropylamino)quinazoline] showed a melting point of 217 to 218 °C. Besides, in data set [1], the inhibition at 1 µM is at least 50%.

In the case of `CCC(CC)Nc1ncc2cc(-c3ccccc3C)c(O)cc2n1` [Compound 170, 2-(3-Pentylamino)-7-hydroxy-6-(2-methylphenyl)quinazoline], the melting point was in the range of 198 to 200 °C. In data set [1], the inhibition at 1 µM is at least 50%.

For `CC[C@H](C)Nc1ncc2cc(-c3cc(C(=O)NC4CC4)ccc3C)c(O)cc2n1` [Compound 361, (S)-2-(sec-Butylamino)-6-(5-cyclopropylcarbamoyl-2-methylphenyl)-7-hydroxyquinazoline], the melting point stood at 153 °C. Moreover, the inhibition at 1 µM in data set [1] is at least 50%.

In the case of `CC(C)Nc1ncc2cc(-c3cccc(C(=O)NC4CC4)c3)c(O)cc2n1` [Compound 334, 6-[3-(Cyclopropylcarbamoyl)phenyl]-7-hydroxy-2-(isopropylamino)quinazoline], the melting point is 250 °C (dec.). Also, in data set [1], the inhibition at 1 µM was at least 50%.

On to `CC(C)Nc1ncc2cc(-c3cccc(C(=O)Nc4cccc(N5CCOCC5)c4)c3)c(O)cc2n1` [Compound 328, 7-Hydroxy-2-isopropylamino-6-{3-[(3-morpholinophenyl)carbamoyl]phenyl}quinazoline], for which the melting point lay in the range of 248 to 249 °C. For the same molecule, in data set [1], the inhibition at 1 µM was at least 50%.

With `CC(C)Nc1ncc2cc(-c3cccc(NC(=O)c4cccc(N5CCCC5)c4)c3)c(O)cc2n1` [Compound 376, 7-Hydroxy-2-isopropylamino-6-{3-[3-(pyrrolidin-1-yl)benzoylamino]phenyl}quinazoline], the melting point was 235 to 236 °C.

Turning to `CC(C)Nc1ncc2cc(-c3cccc(NC(=O)c4ccnc(N5CCN(C)CC5)c4)c3)c(O)cc2n1` [Compound 374, 7-Hydroxy-2-isopropylamino-6-{3-[2-(4-methylpiperazin-1-yl)pyridin-4-ylcarbonylamino]phenyl}quinazoline], the melting point is 178 °C.

With `CC(C)Nc1ncc2cc(-c3cccc(NC(=O)c4cccc(N5CCCCC5)c4)c3)c(O)cc2n1` [Compound 386, 7-Hydroxy-2-isopropylamino-6-{3-[3-(piperidino)benzoylamino]phenyl}quinazoline], the melting point was 230 °C.

Consider `CCC(CC)Nc1ncc2cc(-c3cccc(NC(=O)c4ccnc(N5CCCC5)c4)c3)c(O)cc2n1` [Compound 382, 2-(3-Pentylamino)-7-hydroxy-6-{3-[2-(pyrrolidin-1-yl)pyridin-4-ylcarbonylamino]phenyl}quinazoline], for which the melting point was found to be 194 °C.

Molecule `Cc1ccc(C(N)=O)cc1-c1cc2cnc(NC(C)C)nc2cc1O` [Compound 378, 6-(5-Carbamoyl-2-methylphenyl)-7-hydroxy-2-(isopropylamino)quinazoline] displayed a melting point of 235 to 236 °C.

In the case of `CC(C)Nc1ncc2cc(-c3cccc(C(=O)Nc4ccnc(N5CCCC5)c4)c3)c(O)cc2n1` [Compound 372, 7-Hydroxy-2-isopropylamino-6-{3-[2-(pyrrolidin-1-yl)pyridin-4-ylcarbamoyl]phenyl}quinazoline], the melting point was 275 to 279 °C.

Consider `Cc1cc(F)ccc1-c1cc(C(=O)Nc2cccc(-c3cc4cnc(NC(C)C)nc4cc3O)c2)ccn1` [Compound 388, 6-{3-[2-(4-Fluoro-2-methylphenyl)pyridin-4-ylcarbonylamino]phenyl}-7-hydroxy-2-(isopropylamino)quinazoline], for which the melting point was 224 to 226 °C.

On to `CC(C)Nc1ncc2cc(C(=O)c3cccc(F)c3)c(O)cc2n1` [Compound 132, 6-(3-Fluorobenzoyl)-7-hydroxy-2-(isopropylamino)quinazoline], for which, in data set [1], the inhibition at 1 µM was at least 50%.

Regarding `COc1cc2nc(N[C@H]3CC[C@H](O)CC3)ncc2cc1-c1ccccc1Cl` [Compound 10, 6-(2-Chlorophenyl)-2-(trans-4-hydroxycyclohexylamino)-7-methoxyquinazoline], the inhibition at 1 µM in data set [1] is at least 50%.

As for `COc1cc2nc(NC3CCN(S(C)(=O)=O)CC3)ncc2cc1-c1cccc(O)c1` [Compound 240, 6-(3-Hydroxyphenyl)-7-methoxy-2-[1-(methylsulfonyl)piperidin-4-ylamino]quinazoline], in data set [1], the inhibition at 1 µM is at least 50%.

`COc1cc2nc(N[C@@H](C)CO)ncc2cc1-c1ccccc1C` [Compound 165, (S)-2-(1-Hydroxy-2-propylamino)-7-methoxy-6-(2-methylphenyl)quinazoline]: the inhibition at 1 µM in data set [1] was at least 50%.
